Assays:
Format in all cases: in vivo
[1] = system: ragweed (common ragweed, Ambrosia artemisiifolia); test: Test A1 postemergence, ragweed; conditions: Postemergence
In short: (§1)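 Seeds were first planted into a blend of loam soil and sand and given a preemergence directed soil spray. In parallel, pots of the same soil were sown for postemergence application once plants reached 2 to 10 cm and the one- to two-leaf stage. Both used surfactant-containing non-phytotoxic solvent formulations.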

soybean (Glycine max) = test: Test A1 postemergence, soybean; conditions: Postemergence
In short: (§2)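 Pre: seeds in loam/sand blend, directed soil spray. Post: potted plants, same soil, 2–10 cm, 1–2 leaf stage. Chemicals in non-phytotoxic solvent + surfactant for both.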

[2] = system: blackgrass (Alopecurus myosuroides); test: Test A1 postemergence, blackgrass; conditions: Postemergence, 0 to 100 scale (0 no effect, 100 complete control)
In short: as §2

[3] = system: galium (catchweed bedstraw, Galium aparine); test: Test A1 postemergence, galium; conditions: Postemergence
In short: as §2

kochia (Bassia scoparia) = test: Test A1 preemergence, kochia
In short: (§3)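 Plants grown in pots of loam/sand mix; preemergence = soil-directed spray on seeded pots, postemergence = spray at 1–2 leaves, height 2–10 cm; test chemicals formulated in non-phytotoxic solvent with surfactant.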

corn (Zea mays) = test: Test A1 preemergence, corn
In short: as §1

[4] = system: Ryegrass, Italian (Italian ryegrass, Lolium multiflorum); test: Test A1 preemergence, Ryegrass, Italian
In short: as §3

[5] = system: ducksalad (Heteranthera limosa); test: Test B1 flooded paddy test, ducksalad; conditions: 250 g ai/ha, Flood, applied to paddy water, 2-leaf stage, visually evaluated after 10 to 14 days
Excerpt: A dash (-) response means no test result.

[6] = 31 g ai/ha, 0 to 100 scale (0 no effect, 100 complete control), 10 days
[7] = 31 g ai/ha, 0 to 100 scale (0 no effect, 100 complete control)
[8] = 125 g ai/ha, 0 to 100 scale, 0 no effect, 100 complete control

SMILES | Plant response rating, Ragweed [1, 6] | Plant response rating, Ragweed ([1]; 125 g ai/ha, 0 to 100 scale) | Plant response rating, Soybean (soybean (Glycine max); [6]) | Plant response rating, Soybean (soybean (Glycine max); 125 g ai/ha, 0 to 100 scale) | Plant response rating, Blackgrass ([2]; 31 g ai/ha, 10 days) | Plant response rating, Blackgrass ([2]; 125 g ai/ha) | Plant response rating, Galium [3, 6] | Plant response rating, Galium ([3]; 125 g ai/ha, 0 to 100 scale) | Plant response rating, Kochia (kochia (Bassia scoparia); [7]) | Plant response rating, Kochia (kochia (Bassia scoparia); [8]) | Plant response rating, Corn (corn (Zea mays); [7]) | Plant response rating, Corn (corn (Zea mays); [8]) | Plant response rating, Ryegrass, Italian [4, 7] | Plant response rating, Ryegrass, Italian [4, 8] | Plant response rating, Ducksalad (0 to 100 scale, 0 is no effect, 100 is complete control) [5]
Cc1c(NS(=O)(=O)C(F)(F)F)cc(C(=O)N2CCCCC2)c(C)c1C [Compound 326] | 60 | 80 | 70 | 70 | 0 | 0 | 70 | 100 | 80 | 80 | 0 | 90 | 20 | 70 | 85
Cc1c(NS(=O)(=O)C(F)(F)F)cc(C(=O)N2CC(C)OC(C)C2)c(C)c1C (stereo not drawn) [Compound 328] | 40 | 70 | 60 | 60 | 0 | 0 | 80 | 100 | 20 | 90 | 10 | 60 | 30 | 100 | 90
CCOC(=O)N(c1cc(C(=O)N2CCCCC2)c(C)c(C)c1C)S(=O)(=O)C(F)(F)F [Compound 330, Ethyl N-[(trifluoromethyl)sulfonyl]-N-[2,3,4-trimethyl-5-(1-piperidinylcarbonyl)phenyl]carbamate] | 50 | 80 | 90 | 80 | 0 | 40 | 50 | 60 | 10 | 40 | 0 | 0 | 0 | 90 | 95
Cc1c(C(=O)N2C[C@@H](C)O[C@@H](C)C2)cc(N(COC(=O)C(C)(C)C)S(=O)(=O)C(F)(F)F)c(C)c1C [Compound 331] | 70 | 80 | 60 | 70 | 0 | 50 | 60 | 90 | 0 | 20 | 0 | 0 | 0 | 0 | 80
CCOC(=O)N(c1cc(C(=O)N2C[C@@H](C)O[C@@H](C)C2)c(C)c(C)c1C)S(=O)(=O)C(F)(F)F [Compound 332] | 80 | 80 | 60 | 100 | 0 | 90 | 80 | 90 | 20 | 60 | 0 | 10 | 0 | 20 | 80
Cc1c(C(=O)N2CCCCC2)cc(NS(=O)(=O)C(F)(F)F)c(Cl)c1F [Compound 333] | 0 | 80 | 30 | 80 | 0 | 30 | 70 | 90 | 20 | 80 | 0 | 0 | 30 | 50 | 70
COC1CCCN(C(=O)c2cc(NS(=O)(=O)C(F)(F)F)c(Cl)c(F)c2C)C1 (stereo not drawn) [Compound 334] | 0 | 50 | 20 | 40 | 0 | 0 | 60 | 60 | 0 | 20 | 0 | 0 | 30 | 50 | 60

Reference: patent publication US20230278972A1, “SUBSTITUTED HALOALKYL SULFONANILIDE HERBICIDES” (FMC Corporation, priority 2020, published 2023)
